# Data published in patent US20200282009A1, “METHODS OF TREATING DISEASES ASSOCIATED WITH VASCULAR SMOOTH MUSCLE CELL PROLIFERATION” (BioLineRx Ltd., priority 2017, published 2020).
# How the values were obtained:
# Assay type in all cases: cell-based, human
# SK-N-BE(2)-CXCR4 cells = assay: Cell survival assay (PI staining, FACS); conditions: SK-N-BE(2)-CXCR4 compared to native cell line; 0-10 μM, 24 hours
# Protocol: A total of 1×10^5 cells/mL were cultured in 24-well plates with […] RPMI 1640 medium supplemented with 10% FCS. 24 hours later, the medium was changed to RPMI 1640 supplemented with either 1% FCS, with BL-8040 or AMD3100 or ABT199. Then 24 hours later, the cells were harvested, washed, and stained with PI (Sigma). The number of live cells was counted and analyzed using FACS analysis.
# In order to stably overexpress CXCR4, SK-N-BE(2) cells were transduced with the lentiviral bicistronic vector harboring a CXCR4 expression cassette. This was done using a three-plasmid system: pHR′-CMVCXCR4-IRES-GFP-WPRE; envelope coding plasmid VSV-G and a packaging construct CMVDR8.91 according to previously published protocol (23). For transduction of SK-N-BE(2) cells, 1 ml of viral supernatant was used, which is equivalent to an m.o.i. of ˜9.
# SK-N-BE(2) cells [1] = assay: Soft agar colony assay; conditions: CXCL12 100 ng/ml, 14 days
# Protocol: An agar base layer was prepared as follows: 45 mL RPMI plus 12% FCS was mixed with 15 mL RPMI 32 plus 12% FCS and 15 mL 2.5% agar in double-distilled water. The tumor cells were suspended in RPMI plus 10% FCS. Cell suspension was mixed in a ratio of 1:3 with the agar base solution. This mixture was then plated on top of a preformed solid agar base. CXCL12 (100 ng/mL) or BL-8040 (20 μM) or anti-CXCR4 (1 μg/ml) were added to the mixture. Fourteen days later, the number of colonies was counted in 10 different fields.
# Shy-SY5Y cells = assay: Cell proliferation assay with CXCL12; conditions: CXCL12 500 ng/ml
# Protocol: (§1) Cells were seeded at 2×10^4 cells/1 ml per well into a 24-well plate in medium supplemented with 0.1% FCS with or without various concentrations of CXCL12 (PeproTech EC). On days 2, 4 and 7, cells were harvested, stained with propidium iodide (PI, Sigma), and the number of viable cells was determined using FACS analysis.
# SK-N-BE(2) cells [2] = assay: Cell proliferation assay with CXCL12
# Protocol: as §1
# [3] = system: BCL-2 and CCND1 in SK-N-BE(2) cells; assay: qPCR of target genes after miR transfection
# Protocol: cDNA was synthesized from 0.5-1 μg total RNA using the Quanta Biosciences qScript™ cDNA Synthesis Kit (95047-100) for mRNA analysis, and using the qScript™ microRNA cDNA Synthesis Kit (95107-100) for miRNAs analysis. Quantiative PCR (qPCR) of miRNAs and mRNA was performed using the CFX384, C1000 touch thermal cycler (Bio-Rad) and a SYBR Green PCR Kit: Quanta Cat. #84018 and #84071, respectively. The fold expression and statistical significance were calculated using the 2-ΔΔ Ct method. All experiments were performed in triplicate.
# Transfections were performed using Lipofectamine 2000 transfection reagent (Invitrogen) according to the manufacturer's protocol. Plasmids were purchased from Dharmacon. MiR-15a: miRIDIAN microRNA hsa-miR-15a-5p mimic. MiR-16-1: miRIDIAN microRNA hsa-miR-16-5p mimic. Negative control miR: miRIDIAN microRNA inhibitor negative control. AntagomiR-15a: miRIDIAN microRNA hsa-miR-15a-5p hairpin inhibitor. AntagomiR-16-1: miRIDIAN microRNA hsa-miR-16-5p hairpin inhibitor. AntagomiR negative control: miRIDIAN microRNA hairpin inhibitor negative control 1. All miRNA-mimics and antagomiRs were transfected at 50 nM or 100 nM. To determine the efficiency of transfection, at 48 hours post-transfection, the cells were analyzed for RNA.
compound,measurement,setting,value
"CC1(C)CCC(CN2CCN(c3ccc(C(=O)NS(=O)(=O)c4ccc(NCC5CCOCC5)c([N+](=O)[O-])c4)c(Oc4cnc5[nH]ccc5c4)c3)CC2)=C(c2ccc(Cl)cc2)C1 [ABT-199, reference compound]",resistance to the BCL-2 inhibitor (viability),SK-N-BE(2)-CXCR4 cells,high resistance
CXCL12: the ligand of CXCR4 (PeproTech EC),colony formation with CXCL12,SK-N-BE(2) cells [1],high colony formation ability
same,proliferation with CXCL12,Shy-SY5Y cells,increased proliferation
same,proliferation with CXCL12,SK-N-BE(2) cells [2],no response
miR-16-1: miRIDIAN microRNA hsa-miR-16-5p mimic (guide TAGCAGCACGTAAATATTGGCG; mimic duplex; passenger strand missing),level of both target genes (BCL-2 and CCND1) after transfection,[3],reduction
